Assay results published in PMC10303371, “Activity and Selectivity of Novel Chemical Metallic Complexes with Potential Anticancer Effects on Melanoma Cells” (Molecules, 2023).
Read-outs that look alike come from different tables or passages of the source.

Key:
MeWo cells [1] = assay: MTT cell viability assay on 2D MeWo culture; type: cell-based, human; details: for inhibition of MeWo viability / decrease in cell viability: 20 μM; for inhibition of MeWo viability / change of cell viability (in words): 24 h
Experimental: (§1) IC50 values for MeWo cells were calculated with GraphPad Prism software (6.0 for Windows, LLC, San Diego, CA, USA).
(§2) Then, the supernatant was removed and 100 μL of dimethyl sulfoxide (DMSO) was added to solubilize formazan crystals. The absorbance was measured at 490 nm using a microplate reader (Infinite F200 PRO, Tecan Group Ltd., Männedorf, Switzerland) Cell metabolic activity was calculated as percentage compared to the control group (considered as 100%), according to Equation (1):(1) % Cell metabolic activity=Abs of sample−Abs blank/Abs of control−Abs blank×100

MeWo 3D culture = assay: Live/Dead assay on 3D MeWo cultures (spheroids); type: cell-based, human; details: 3D MeWo culture, 5 μM, 24 h, semi-quantitative
Description: High density 3D cultures were obtained using 96-well ultra-low attachment microplates (Corning, Manassas, VA, USA). Briefly, MeWo cells were resuspended at a density of 500.000 cells/mL. […] For the cell viability assay, the average value of 10 3D-systems (n = 3) were considered.
Cell viability of 3D cultures was detected by fluorescence Live/Dead assay after cellular aggregate formation. Calcein AM solution (Cat. no C1359, Sigma-Aldrich) was used to stain live cells, while cell membrane-impermeable Ethidium homodimer I solution (Cat. no E1903, Sigma-Aldrich) for nuclei of dead cells.

[2] = Hydrolytic stability by 1H-NMR; type: physicochemical; details: D2O-10% of DMSO-d6; 0 h, 2 h, 4 h, 24 h, 48 h and 72 h
Description: 10% of DMSO-d6, following the procedure in ref. [23]. Figures S3–S6 show the 1H-NMR […]
time. These preliminary studies can be reasonably extended to all synthesized complexes because they have a similar structure. Thus, it is possible to affirm th at these complexes are […]
(1 picture or pasted object on this page, not shown here)

MeWo cells [3] = assay: Time-Lapse Live-Cell Imaging of 2D MeWo culture; type: cell-based, human; details: 20 μM
Experimental: MeWo culture was performed using Time-Lapse Live-Cell Imaging System formed by a Bold Line Top Stage Incubator for 35 mm Petri dishes (H301-T UNIT BL; Okolab S.r.l., Pozzuoli, Italy), that allows the acquisition of the same field along the culture time in fixed culture point mapped by the fully automated stage. The incubator has independent control of gas (CO2/O2), humidity and temperature, and ensured an environment with 37 °C of temperature and 5% of CO2 atmosphere. The system allows acquisition in brightfield and fluorescence. All images of different fields within the culture chamber were achieved automatically, using Olympus IX83 time-lapse microscope by motorized stage and CCD monochrome camera (mod. XM10, Olympus, Segrate, Italy), and with all operations under the control of the X-Excellence advanced live-cell imaging software (version 2.0, Olympus Inc., Segrate, Italy). In our case, cell images were captured in brightfield using a 10× objective every 4 h intervals. The related videos reported in Supplementary Materials were generated with windows movie maker software (version 2.0, Microsoft) starting from the acquired frames.

HaCaT cells = assay: MTT selectivity study on HaCaT non-cancerous cell line; type: cell-based, human; details: 5 μM, 48 h
Experimental: as §1, §2

MeWo cells [4] = assay: Apoptosis by Annexin V / propidium iodide flow cytometry; type: cell-based, human; details: 20 μM
Experimental: Annexin V FITC Apoptosis Detection Kit (Cat. […] Then, 5 μL of Annexin V FITC Conjugate and 5 μL of propidium Iodide PE Solution were added to 100 μL of the cell suspension (1 × 10^6 cells/mL). After incubation for 15 min at room temperature with light protection, 400 μL of Annexin V Binding Solution was added for flow cytometry analysis.

histone H2AX = assay: Western blot of histone H2AX phosphorylation in MeWo cells; type: cell-based, human; details: 20 μM
Experimental: (§3) Human melanoma cells (MeWo; ATCC®, HTB-65^TM) were grown in 100 mm Petri Dishes at a density of 1.5 × 10^4 cells/cm^2 and treated with 20 μM of AuM1 (5′-15′-30′-1 h) and AgM1 (5′-15′-30′-1 h-24 h). After treatments, cells were harvested and lysed in RIPA buffer (NaCl 150 mM, 1% triton X-100 pH 8.0, 0.5% sodium deoxycholate, 0.1% SDS, 50 mM Tris, pH 8.0), supplemented with protease inhibitors cocktail and phosphatase inhibitors (Merck), 1 h on ice. Lysates were then centrifuged for 30 min at 15,000× g and supernatant were transferred to a new 1.5 mL tube. Protein amount was determined by Bradford assay (Bio-Rad, Hercules, CA, USA) and 15 μg of total protein extracts were separated by SDS–PAGE gels and transferred onto nitrocellulose membranes. […] Immunoreactivity was detected by sequential incubation with appropriate horseradish peroxidase-conjugated secondary antibodies (Merck) for 1 h at room temperature and Pierce ECL detection reagents (Thermo Scientific, Rockford, IL, USA) on an X-ray film. […] The area under the curves, each relative to a band, was determined and the background was subtracted from the calculated values.

p-ERK 1/2 = assay: Western blot of ERK phosphorylation in MeWo cells; type: cell-based, human; details: 20 μM
Experimental: as §3

MeWo cells [5] = assay: Cell cycle analysis by DNA content (propidium iodide) flow cytometry; type: cell-based, human; details: 48 h
Experimental: Human melanoma cells (MeWo, HTB-65^TM; ATCC®, Manassas, VA, USA) were grown in 24-well plates at a density of 1 × 10^4 cells/cm^2 and treated with AuM1 (at 1 μM and 5 μM) and AgM1 (at 10 μM and 20 μM) for 24 h and 48 h. After treatments, cells were transferred in 15 mL polypropylene V-bottomed tubes, rinsed twice in ice cold PBS, and stained in freshly prepared PBS buffer containing 1 mg/mL propidium iodide (PI) (Merck Life Science S.r.l., Milan, Italy), 110,000 U/mL RNase A (Merck) and 0.1% Triton X-100 (Merck Life Science S.r.l., Milan, Italy). Cells were incubated 30 min at 4 °C in the dark and analysed with a BD FACSVerse flow cytometer (Becton Dickinson, BD, Franklin Lakes, NJ, USA) counting 1 × 10^4 events per sample. G1, S and G2/M cell cycle phase percentages were analysed by ModFit LT software (version 3.0).

Thermal stability = type: physicochemical; details: decompose before melting
[6] = 5 μM, screening of derivatives, MTT
[7] = MeWo, MTT, 24 h of treatment, read-out: IC50 24 h
[8] = MeWo, MTT, 48 h of treatment, read-out: IC50 48 h

Compound	red signal (dead cells), Live/Dead assay (MeWo 3D culture)	hydrolytic stability (1H-NMR spectra over time) [2]	inhibition of MeWo viability (MeWo cells [1])	reduction of cell viability (MeWo cells [1]; MeWo, 10 μM, 48 h)	decrease in cell viability (MeWo cells [1]; MeWo, 48 h)	IC50 (MeWo cells [1]; [7])	IC50 (MeWo cells [1]; [8])	time of treatment after which cell death was observed (MeWo cells [3])	other results
CC(C)(C)OC(=O)N[C@@H](Cc1ccccc1)C(=O)[O-].[Ag+] [PheAg, Boc-L-Phenylalanine silver salt]	50%	no changes are observed							MeWo viability reduction (MeWo cells [1]; [6]): up to 80%
C[n+]1ccn(CC(O)c2ccccc2)[c]1[Ag-][I] (racemic) [AgL20]			able to inhibit MeWo viability	about 10%	more than 50%	~19.4 µM	18.3 µM	> 96 h	change of cell viability (in words) (MeWo cells [1]; MeWo, 10 μM): apparent increase in cell viability
C[n+]1c(Cl)c(Cl)n(CC(O)c2ccccc2)[c]1[Au-][Cl] (racemic) [AuM1]	45%	no changes are observed	able to inhibit MeWo viability		more than 50%	5.48 µM	3.12 µM	8 h	MeWo viability (MeWo cells [1]; 5 μM, 48 h): 30%; MeWo viability reduction (MeWo cells [1]; 5 μM, 48 h): 70%; reduction of cell viability (MeWo cells [1]; MeWo, 48 h, concentration not restated, by context 10 μM): 95%; HaCaT viability (HaCaT cells): 70%; selectivity MeWo vs HaCaT (in words) (HaCaT cells): most selective; apoptotic cells (MeWo cells [4]; 8 h of exposure, control 11.7%): 63.8%; phosphorylation of histone H2AX (histone H2AX; already after 5 min (5'-15'-30'-1 h)): significant and marked increase; ERK phosphorylation (p-ERK) (p-ERK 1/2): pronounced and significant decrease; cell cycle progression (MeWo cells [5]; 5 μM): G0/G1 phase cell cycle arrest
Cn1c(Cl)c(Cl)[n+](CC(O)c2ccccc2)[c]1[Ag-][O]C(=O)CNC(=O)OC(C)(C)C (stereo not drawn) [AgM1Gly]		no changes are observed							thermally stable up to temperature (Thermal stability): around 150 °C
CC(C)(C)OC(=O)NCC(=O)[O-].[Ag+] [GlyAg, Boc-Glycine silver salt]									MeWo viability reduction (MeWo cells [1]; [6]): up to 80%
N.N.[Cl][Pt][Cl] [cisplatin, reference compound]									inhibition of MeWo cultures (MeWo cells [1]; even at 20 μM): not inhibited
C[n+]1c(Cl)c(Cl)n(CC(O)c2ccccc2)[c]1[Ag-][I] (racemic) [AgM1]			able to inhibit MeWo viability	about 10%	more than 50%	15.4 µM	14.8 µM	96 h	reduction in cell viability (MeWo cells [1]; MeWo, 1 μM, 48 h): 30%; Minimum Inhibitory Concentration (MIC) (MeWo cells [1]; MeWo, 48 h): 1 µM; apoptotic cells (MeWo cells [4]; 96 h of treatment): ~6.7%; phosphorylation of histone H2AX (histone H2AX; at 5'-30'-1 h): significantly increase; ERK phosphorylation (p-ERK) (p-ERK 1/2): pronounced and significant decrease; cell cycle progression (MeWo cells [5]; 20 μM): G0/G1 phase cell cycle arrest
C[n+]1ccn(CC(O)c2ccccc2)[c]1[Au-][Cl] (racemic) [AuL20]			able to inhibit MeWo viability	about 10%	25%	~24.6 µM	31.1 µM	> 40 h	change of cell viability (in words) (MeWo cells [1]; MeWo, 10 μM): apparent increase in cell viability
CC(C)(C)OC(=O)N[C@@H](Cc1ccccc1)C(=O)O.CN1[CH-]N(CC(O)c2ccccc2)C(Cl)=C1Cl.[Au+] [AuM1Phe]	60%	no changes are observed							
